Data set [1] can be described thus: Solubility in water. Type of data set: physicochemical. As to conditions: saturated solution in water. As for the experimental part:
Solubility was determined by dissolving the test compound in the minimum amount of water to produce a saturated solution.

In data set [2] the test system is K562 human chronic myeloid leukaemia cells. The experiment in a line: K562 cell line MTT assay, 1 hour exposure. Type of data set: cell-based. Particulars: 1 hour incubation. As for the experimental part:
K562 Cell Line (MTT Assay)
K562 human chronic myeloid leukaemia cells were maintained in RPM1 1640 medium supplemented with 10% fetal calf serum and 2 mM glutamine at 37° C. in a humidified atmosphere containing 5% CO2 and were incubated with a specified dose of drug for 1 hour at 37° C. in the dark. The incubation was terminated by centrifugation (5 min, 300 g) and the cells were washed once with drug-free medium. Following the appropriate drug treatment, the cells were transferred to 96-well microtiter plates (10^4 cells per well, 8 wells per sample). Plates were then kept in the dark at 37° C. in a humidified atmosphere containing 5% CO2. The assay is based on the ability of viable cells to reduce a yellow soluble tetrazolium salt, 3-(4,5-dimethylthiazol-2-yl)-2,5-diphenyl-2H-tetrazolium bromide (MTT, Aldrich-Sigma), to an insoluble purple formazan precipitate. Following incubation of the plates for 4 days (to allow control cells to increase in number by approximately 10 fold), 20 μL of MTT solution (5 mg/mL in phosphate-buffered saline) was added to each well and the plates further incubated for 5 h. The plates were then centrifuged for 5 min at 300 g and the bulk of the medium pipetted from the cell pellet leaving 10-20 μL per well. […] The optical density was then read at a wavelength of 550 nm on a Titertek Multiscan ELISA plate reader, and a dose-response curve was constructed. […]

In data set [3] the test system is K562 cells. The data set can be described thus: K562 cell line Alamar Blue assay. As to conditions: 96 hours. Type of data set: cell-based, human. How it is done: K562 Cell Line (Alamar Blue Assay)
The compounds to be tested were dissolved in 100% Biotech grade DMSO (Sigma) and subsequently diluted to stock concentrations of either 2 μM or 200 nM in 2% DMSO. 100 μl of the stock concentrations were serially diluted 1 in 3 in 2% DMSO in intermediate polystyrene 96 well cell culture plates (Nunc). 2% DMSO was placed in the outer columns for use as blanks, and in the 2nd or 11th column (depending on whether the top or bottom of an assay plate was to be used) for use as a control. The entire row of the intermediate plate was then transferred in triplicate to either rows B to D or E to G of a fluorescence compatible polystyrene 96 well cell culture plate (Greiner BioOne); 10 μl to each well. A cell solution containing 5×10^4 cells/ml was made up in phenol red free RPMI 1640 (Sigma) supplemented with 10% foetal calf serum (Sigma) and 20 mM L-glutamine (Sigma). 190 μl cell solution was added to each well of the assay plate, from columns 2 to 11. 190 μl culture media was added to columns 1 and 12. Plates were incubated for 96 hours at 37° C. in 5% CO2. 1 μM (final) rezasurin (converted to fluorescent resofurin by viable cells) was added to each well and the plates incubated for a further 4 hours. Fluorescence was read at 530-570 nm excitation, 580-620 nm emission using an Envision plate reader (Applied Biosystems). Data was then analysed by Graphpad PRISM, and an IC50 obtained (defined as the compound concentration needed to reduce the cell population by half).

Data set [4] deals with Closed-circular puc18 DNA linearized with HindIII. The data set can be described thus: DNA cross-linking (agarose gel). As to conditions: amount required to cross-link 50% of the DNA (XL50), 37° C., pH 7.2. The format is biochemical. As for the experimental part: Closed-circular puc18 DNA was linearized with HindIII, then dephosphorylated, and finally 5′ end labeled with [y32P]-ATP using polynucleotide kinase. Reactions containing 10 ng of DNA and drug were carried out in aqueous 1×TEOA (25 mM triethanolamine, 1 mM EDTA, pH 7.2) buffer at a final volume of 50 μL at 37° C. Reactions were terminated by addition of an equal volume of stop solution (0.6 M NaOAc, 20 mM EDTA, 100 μg/mL tRNA) followed by precipitation with ethanol. Following centrifugation of the samples, the supernatants were discarded and the pellets were dried by lyophilization. […]
Electrophoresis was performed on a 0.8% submerged horizontal agarose gel, 20 cm in length for 16 hours at 38-40 V in 1×TAE running buffer (2.42 g Tris Base, 0.372 g EDTA, 0.571 ml glacial acetic acid). […] The film bands were quantitated using a BioRad GS-670 imaging laser densitometer. The percentage of cross-linking was calculated by measuring the total DNA in each lane (the sum of the densities for the double-stranded and single-stranded bands) relative to the amount of density of double-stranded band alone. A dose response curve was derived by plotting drug concentration against the determined percentage level of cross-linked DNA, from which was derived the amount required to cross-link 50% of the DNA (XL50).

Data set [5] relates to K562 human chronic myeloid leukaemia cells. The data set can be described thus: K562 cell line MTT assay, 96 hour exposure. The format is cell-based. Particulars: 96 hour incubation. How it is done:
In a modification of the above method, 5×10^4 K562 cells (as above) were maintained in RPMI 1640 medium (Sigma) supplemented with 10% foetal calf serum (Sigma) and 20 mM L-glutamine (Sigma) and 190 μL of this solution incubated with specific doses of the drug (10 μL) for 96 hours at 37° C. in 5% CO2. 250 μg/ml (final) MTT was added to each well and the plates incubated for a further 4 hours. Absorbance was read at 450 nm using an Envision plate reader (Applied Biosystems). Data was then analysed by Graphpad PRISM, and an IC50 obtained (defined as the compound concentration needed to reduce the cell population by half).
For orientation: Tetrazolium dyes change colour on reduction, which living cells bring about.

Data set [6] can be described thus: Single intravenous maximum tolerated dose. Type of data set: in vivo, mice. Particulars: previously established.
Data set [7] relates to OVCAR-5 human ovarian tumour cells. The experiment in a line: OVCAR-5 cell line cytotoxicity (resazurin). Particulars: 96 hours, read-out: ZC-423 IC50. Type of data set: cell-based. As for the experimental part:
(§1) LOXIMVI and OVCAR-5 Cell Lines
(§2) A cell solution containing 5×10^4 cells/ml of either LOXIMVI human melanoma cells or OVCAR-5 human ovarian tumour cells was made up in phenol red free RPMI 1640 (Sigma) supplemented with 10% foetal calf serum (Sigma) and 20 mM L-glutamine (Sigma). 190 μl cell solution was added to each well of a fluorescence compatible polystyrene 96 well cell culture plate (Greiner BioOne), from columns 2 to 11. 190 μl culture media was added to columns 1 and 12. Plates were incubated overnight at 37° C. in 5% CO2. Compounds were dissolved in 100% Biotech grade DMSO (Sigma) and subsequently diluted to stock concentrations in 2% DMSO. 100 μl of the stock concentrations were serially diluted 1 in 3 in 2% DMSO in intermediate polystyrene 96 well cell culture plates (Nunc). 2% DMSO was placed in the outer columns for use as blanks, and in the 2nd or 11th column (depending on whether the top or bottom of an assay plate was to be used) for use as a control. The entire row of the intermediate plate was then transferred in triplicate, 10 μl per well, to either rows B to D or E to G of the cell plate. […] Fluorescence was read at 530-570 nm excitation, 580-620 nm emission using an Envision plate reader (Applied Biosystems). Data was then analysed by Graphpad PRISM, and an IC50 obtained (defined as the compound concentration needed to reduce the cell population by half).
(The colour change of resazurin is a common sign of viable cells or microbes.)

Data set [8] deals with LOX IMVI (human melanomas). The experiment in a line: Anti tumour activity, LOX IMVI xenograft in nude mice. Type of data set: in vivo. How it is done:
LOX IMVI (human melanomas) were grown subcutaneously in nude mice (B&K Universal, Hull, UK). Tumours were transplanted as single tumour fragments in the flank by trocar. Groups of 8 tumour-bearing mice were treated with ZC423 at the previously established single intravenous (iv) maximum tolerated dose (MTD) of 3 mgkg^−1 using 5% DMA/saline as the vehicle. Control mice (n=8) were treated with vehicle alone.
Treatment commenced when tumours could be reliably measured by calipers (mean dimensions 4×4 mm) and therapeutic effects were assessed by daily caliper measurements of the tumour and mouse weights. Tumour volumes were determined by the formula a^2×b/2 where a is the smaller and b is the larger diameter of the tumour. The results are shown in FIG. 1 as a graphs of relative tumour volume against time (▪ ZC423; ♦ Control—solvent alone).

In data set [9] the test system is LOXIMVI human melanoma cells. The experiment in a line: LOXIMVI cell line cytotoxicity (resazurin). The format is cell-based. Particulars: 96 hours, read-out: ZC-423 IC50. How it is done:
as §1, §2

Broadly, the IC50 is the concentration that gives 50% inhibition.

Consider `COc1ccc(C2=CN3C(=O)c4cc(OC)c(OCCCOc5cc6c(cc5OC)C(=O)N5C=C(c7ccc(OC)cc7)C[C@H]5C=N6)cc4N=C[C@@H]3C2)cc1` [ZC-207, 1,1′-[[(Propane-1,3-diyl)dioxy]bis[(11aS)-7-methoxy-2-(p-methoxybenzene)-1,11a-dihydro-5H-pyrrolo[2,1-c][1,4]benzodiazepine-5-one]]], for which the “Amount of compound (g) in 1 L water” value in data set [1] is on record as “Insoluble”. In [2], this compound gave an IC50 of 5.3 nM.
For `COc1cc2c(cc1OCCCOc1cc3c(cc1OC)C(=O)N1C=C(c4ccc(F)cc4)C[C@H]1C(S(=O)(=O)[O-])N3)NC(S(=O)(=O)[O-])[C@@H]1CC(c3ccc(F)cc3)=CN1C2=O.[Na+].[Na+]` (stereo partly drawn) [Compound 33, 1,1′-[[(Propane-1,3-diyl)dioxy]bis[(11aS)-11-sulpho-7-methoxy-2-(4-fluorobenzene)-1, 10,11,11a-tetrahydro-5H-pyrrolo[2,1-c][1,4]benzodiazepin-5-one]] sodium salt], the “Amount of compound (g) in 1 L water” value in data set [1] turned out to be 3 g in 1 L water. Also, the IC50 in data set [3] was less than 1 nM.
In data set [3] (Homo sapiens), `COc1cc2c(cc1OCCCOc1cc3c(cc1OC)C(=O)N1C=C(c4ccc5c(c4)OCO5)C[C@H]1C=N3)N=C[C@@H]1CC(c3ccc4c(c3)OCO4)=CN1C2=O` [Compound 29] showed a half-inhibitory concentration (IC50) of less than 1 nM.
Take `COc1cccc(C2=CN3C(=O)c4cc(OC)c(OCCCOc5cc6c(cc5OC)C(=O)N5C=C(c7cccc(OC)c7)C[C@H]5C=N6)cc4N=C[C@@H]3C2)c1` [Compound 26, 1,1′-[[(Propane-1,3-diyl)dioxy]bis[(11aS)-7-methoxy-2-(3-methoxybenzene)-1,11a-dihydro-5H-pyrrolo[2,1-c][1,4]benzodiazepine-5-one]]]: the IC50 in data set [3] (Homo sapiens) is less than 1 nM.
In data set [4], `COc1cc2c(cc1OCCCOc1cc3c(cc1OC)C(=O)N1C=C(c4ccc5ccccc5c4)C[C@H]1C=N3)N=C[C@@H]1CC(c3ccc4ccccc4c3)=CN1C2=O` [Compound 18] yielded an IC50 of 200 nM.
`COc1cc2c(cc1OCCCOc1cc3c(cc1OC)C(=O)N1C=C(c4cccs4)C[C@H]1C=N3)N=C[C@@H]1CC(c3cccs3)=CN1C2=O` [Compound 21] showed an IC50 in [4] of 500 nM.
`COc1cccc(C2=CN3C(=O)c4cc(OC)c(OCCCOc5cc6c(cc5OC)C(=O)N5C=C(c7cccc(OC)c7)C[C@H]5C(S(=O)(=O)[O-])N6)cc4NC(S(=O)(=O)[O-])[C@@H]3C2)c1.[Na+].[Na+]` (stereo partly drawn) [Compound 27, 1,1′-[[(Propane-1,3-diyl)dioxy]bis[(11aS)-11-sulpho-7-methoxy-2-(3-methoxybenzene)-1, 10,11,11a-tetrahydro-5H-pyrrolo[2,1-c][1,4]benzodiazepin-5-one]] sodium salt]: in data set [1], the “Amount of compound (g) in 1 L water” value turned out to be 9 g in 1 L water. The same compound came in with an IC50 in data set [3] of less than 1 nM.
For the compound “1,1′[[(Propane-1,5-diyl)dioxy]bis[(11aS)-11-sulpho-7-methoxy-2-(4-methoxyphenyl)-1,10,11,11a-tetrahydro-5H-pyrrolo[2,1-c][1,4]benzodiazepin-5-one]] sodium salt [ZC-423]”, the half-inhibitory concentration (IC50) in data set [5] was 1.5 nM; in [7] it was 5.2 nM; in data set [9], 4.83 nM. Moreover, the “Amount of compound (g) in 1 L water” value in data set [1] worked out at 11 g in 1 L water. Besides, in data set [6], the “single intravenous (iv) maximum tolerated dose (MTD)” value was found to be 3 mgkg^−1. Moreover, the “activity (relative tumour volume vs control), Mann-Whitney analysis” value in [8] (single iv 3 mgkg^−1, FIG. 1) is given as “statistically significant”. In addition, the tumour free animals result in data set [8] (single iv 3 mgkg^−1, at 68 days, FIG. 2) was “all animals were tumour free”.
`COc1cc2c(cc1OCCCOc1cc3c(cc1OC)C(=O)N1C=C(c4ccc(F)cc4)C[C@H]1C=N3)N=C[C@@H]1CC(c3ccc(F)cc3)=CN1C2=O` [Compound 32, 1,1′-[[(Propane-1,3-diyl)dioxy]bis[(11aS)-7-methoxy-2-(4-fluorobenzene)-1,11a-dihydro-5H-pyrrolo[2,1-c][1,4]benzodiazepine-5-one]]] gave an IC50 in data set [3] (Homo sapiens) of less than 1 nM.

The values above are taken from patent US8633185B2 (priority 2005, dated 2014).
